From ChEMBL document CHEMBL1142024, “Glucokinase-activating ureas” (Bioorg Med Chem Lett, 2005)
Active and inactive are the calls of the source. The calls are words filed in the database; no cut-off is given here.

What was measured:
Hexokinase-4 [1] = molecular target: T1, Hexokinase-4 (Rattus norvegicus, UniProt P17712); test: Effective concentration for glucokinase activation with 5 mM glucose; assay type: functional
T1 sequence (P17712 whole entry): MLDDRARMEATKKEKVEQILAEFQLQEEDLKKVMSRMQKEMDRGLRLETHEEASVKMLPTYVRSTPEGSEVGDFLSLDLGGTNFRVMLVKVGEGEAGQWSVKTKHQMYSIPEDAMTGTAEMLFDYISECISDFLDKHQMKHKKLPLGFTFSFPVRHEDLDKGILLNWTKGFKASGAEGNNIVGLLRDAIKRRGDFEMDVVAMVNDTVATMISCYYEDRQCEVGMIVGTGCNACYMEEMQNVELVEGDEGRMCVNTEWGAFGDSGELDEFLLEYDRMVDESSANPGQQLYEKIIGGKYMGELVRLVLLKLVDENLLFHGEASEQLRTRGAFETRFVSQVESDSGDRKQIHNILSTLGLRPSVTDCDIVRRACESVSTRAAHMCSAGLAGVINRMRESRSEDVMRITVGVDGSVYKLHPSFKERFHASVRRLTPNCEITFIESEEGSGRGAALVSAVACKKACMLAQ

Hexokinase-4 [2] = molecular target: T1, Hexokinase-4; test: Effective concentration for glucokinase activation with 15 mM glucose; assay type: functional
[3] = molecular target: T2, Hexokinase-4 (Rattus norvegicus) (UniProt P17712); test: Maximal activation of glucokinase at 15 mM glucose
T2 sequence (whole entry): T1 sequence (P17712 whole entry)

Hexokinase-4 [4] = molecular target: T1, Hexokinase-4; test: Effective concentration for glucokinase activity; NA - No activation at 30 uM; assay type: functional
[5] = molecular target: T2, Hexokinase-4 (Rattus norvegicus); test: Maximal activation of glucokinase; NA - No activation at 30 uM
Hexokinase-4 [6] = molecular target: T1, Hexokinase-4; test: Effective concentration for glucokinase activation; NA - No activation at 30 uM; assay type: functional

| SMILES | EC50 (Hexokinase-4 [1]) [µM] | also measured |
| --- | --- | --- |
| O=C(Nc1ncc(Cl)s1)N(CC1CCCC1)c1ccc(N2CCOCC2)cc1 |  | EC50 (Hexokinase-4 [4]): Not Active; Activity [5]: inactive |
| CS(=O)(=O)c1ccc(N(CC2CCCO2)C(=O)Nc2ncc(Cl)s2)cc1 (stereo not given) | 21.6 |  |
| CC(=O)Nc1cccc(N(CC2CCCC2)C(=O)Nc2ncc(Cl)s2)c1 | 0.3 |  |
| COc1ccc(N(CC2CCCC2)C(=O)Nc2nncs2)cn1 |  | EC50 (Hexokinase-4 [6]): Not Active; Activity [5]: inactive |
| CS(=O)(=O)c1ccc(N(CC2CCCC2)C(=O)Nc2nc3ccc(S(C)(=O)=O)cc3s2)cc1 | 32.9 |  |
| O=C(Nc1ccccn1)N(CC1CCCC1)c1ccc(F)c(F)c1 |  | EC50 (Hexokinase-4 [6]): Not Active; Activity [5]: inactive |
| O=C(Nc1ncc(Cl)s1)N(CC1CCCC1)c1ccc(Br)c(F)c1 | 0.7 |  |
| CS(=O)(=O)c1ccc(N(CC2CCOC2)C(=O)Nc2ncc(Cl)s2)cc1 (stereo not given) | 21.9 |  |
| CS(=O)(=O)c1ccc(N(CC2CCCC2)C(=O)Nc2nnc(C(F)(F)F)s2)cc1 | 34.2 |  |
| COc1ccc(N(CC2CCCC2)C(=O)NC2=NC(=O)CS2)cn1 | 29.1 |  |
| Cc1ccc(N(CC2CCCC2)C(=O)Nc2ncc(Cl)s2)cc1Cl | 0.4 |  |
| CS(=O)(=O)c1ccc(N(Cc2nccs2)C(=O)Nc2ncc(Br)s2)cc1 | 24.1 |  |
| O=C(Nc1ncc(Cl)s1)N(CC1CCCC1)c1ccc(Oc2ccccc2)cc1 |  | EC50 (Hexokinase-4 [4]): Not Active; Activity [5]: inactive |

Second part, led by results:

| EC50 (Hexokinase-4 [1]) [µM] | SMILES | also measured |
| --- | --- | --- |
| 2.2 | CS(=O)(=O)c1ccc(C(CC2CCCC2)C(=O)Nc2nccs2)cc1 (stereo not given) | EC50 (Hexokinase-4 [2]): 1 µM; Activity [3]: 1.6 |
| 4.9 | CS(=O)(=O)c1ccc(N(CC2CCOCC2)C(=O)Nc2ncc(Cl)s2)cc1 |  |
| 1.5 | CS(=O)(=O)c1ccc(N(CC2CCCC2)C(=O)Nc2ncc(Cl)s2)cc1 |  |
| 6.6 | CS(=O)(=O)c1ccc(N(Cc2cccs2)C(=O)Nc2ncc(Cl)s2)cc1 |  |
| 1.8 | NS(=O)(=O)c1ccc(N(CC2CCCC2)C(=O)Nc2ncc(Cl)s2)cc1 |  |
| 2.7 | COc1ccc(N(CC2CCCC2)C(=O)Nc2ncc(Cl)s2)cn1 |  |
| 6.5 | CS(=O)(=O)c1ccc(N(Cc2ccsc2)C(=O)Nc2ncc(Br)s2)cc1 |  |
| 2.6 | O=C(Nc1ncc(Cl)s1)N(CC1CCCC1)c1ccc(F)c(F)c1 |  |
| 6.8 | CS(=O)(=O)c1ccc(N(Cc2ccsc2)C(=O)Nc2ncc(Cl)s2)cc1 |  |
| 16.3 | O=C(Nc1nccs1)N(CC1CCCC1)c1ccc(F)c(F)c1 |  |
| 7.7 | N#Cc1ccc(N(CC2CCCC2)C(=O)Nc2ncc(Cl)s2)cn1 |  |
| 1 | NC(=O)c1cccc(N(CC2CCCC2)C(=O)Nc2ncc(Cl)s2)c1 |  |
| 16 | CS(=O)(=O)c1ccc(N(CC2CCCC2)C(=O)Nc2nccs2)cc1 | EC50 (Hexokinase-4 [2]): 9.7 µM; Activity [3]: 2.8 |
| 1.3 | O=C(Nc1ncc(Cl)s1)N(CC1CCCC1)c1ccc(C(F)(F)F)cc1 |  |
| 2.4 | N#Cc1ccc(N(CC2CCCC2)C(=O)Nc2ncc(Cl)s2)cc1 |  |
| 11.5 | CS(=O)(=O)c1ccc(N(Cc2ccco2)C(=O)Nc2ncc(Cl)s2)cc1 |  |
| 19.2 | COc1ccc(N(CC2CCCC2)C(=O)Nc2nccs2)cn1 |  |
| 1.4 | COc1cccc(N(CC2CCCC2)C(=O)Nc2ncc(Cl)s2)c1 |  |
| 2 | COc1ccc(N(CC2CCCC2)C(=O)Nc2ncc(Br)s2)cn1 |  |
